This assay addresses T1, mouse TRPM3a2 (mTRPM3) ion channel (Mus musculus, UniProt J9SQF3).
T1 construct: expressed in transfected cells; host or cells: flip-in HEK293
Put plainly: TRPM3 ion channel driven Ca2+ uptake, Fluo-4 AM assay (PS-stimulated, overexpressing flip-in HEK293 cells). It counts as cell-based. The essentials:
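Flip-in HEK293 cells overexpressing mTRPM3α2, loaded with Fluo-4 AM, were added to wells with compound plus 50 μM pregnenolone sulfate in Ca2+-containing Krebs buffer and read immediately (ex 485/em 535 nm). Percent inhibition was scaled between PS-plus-vehicle and positive-control-inhibitor signals.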

Setting [1] is: PS (50 μM) stimulated, cpd 001-199.
The mark [2] stands for this setting: PS (50 μM) stimulated Ca2+ influx, HEK293, cpds 300-399.
[3] abbreviates: PS (50 μM) stimulated, cpds. 400-499.
The mark [4] stands for this setting: PS (50 μM) stimulated, cpds. 500-599.
Setting [5] is: PS (50 μM) stimulated, cpds. 600-666.

Bounds are passed on as bounds.

T1 sequence (J9SQF3 1-1709 isoform J9SQF3-12): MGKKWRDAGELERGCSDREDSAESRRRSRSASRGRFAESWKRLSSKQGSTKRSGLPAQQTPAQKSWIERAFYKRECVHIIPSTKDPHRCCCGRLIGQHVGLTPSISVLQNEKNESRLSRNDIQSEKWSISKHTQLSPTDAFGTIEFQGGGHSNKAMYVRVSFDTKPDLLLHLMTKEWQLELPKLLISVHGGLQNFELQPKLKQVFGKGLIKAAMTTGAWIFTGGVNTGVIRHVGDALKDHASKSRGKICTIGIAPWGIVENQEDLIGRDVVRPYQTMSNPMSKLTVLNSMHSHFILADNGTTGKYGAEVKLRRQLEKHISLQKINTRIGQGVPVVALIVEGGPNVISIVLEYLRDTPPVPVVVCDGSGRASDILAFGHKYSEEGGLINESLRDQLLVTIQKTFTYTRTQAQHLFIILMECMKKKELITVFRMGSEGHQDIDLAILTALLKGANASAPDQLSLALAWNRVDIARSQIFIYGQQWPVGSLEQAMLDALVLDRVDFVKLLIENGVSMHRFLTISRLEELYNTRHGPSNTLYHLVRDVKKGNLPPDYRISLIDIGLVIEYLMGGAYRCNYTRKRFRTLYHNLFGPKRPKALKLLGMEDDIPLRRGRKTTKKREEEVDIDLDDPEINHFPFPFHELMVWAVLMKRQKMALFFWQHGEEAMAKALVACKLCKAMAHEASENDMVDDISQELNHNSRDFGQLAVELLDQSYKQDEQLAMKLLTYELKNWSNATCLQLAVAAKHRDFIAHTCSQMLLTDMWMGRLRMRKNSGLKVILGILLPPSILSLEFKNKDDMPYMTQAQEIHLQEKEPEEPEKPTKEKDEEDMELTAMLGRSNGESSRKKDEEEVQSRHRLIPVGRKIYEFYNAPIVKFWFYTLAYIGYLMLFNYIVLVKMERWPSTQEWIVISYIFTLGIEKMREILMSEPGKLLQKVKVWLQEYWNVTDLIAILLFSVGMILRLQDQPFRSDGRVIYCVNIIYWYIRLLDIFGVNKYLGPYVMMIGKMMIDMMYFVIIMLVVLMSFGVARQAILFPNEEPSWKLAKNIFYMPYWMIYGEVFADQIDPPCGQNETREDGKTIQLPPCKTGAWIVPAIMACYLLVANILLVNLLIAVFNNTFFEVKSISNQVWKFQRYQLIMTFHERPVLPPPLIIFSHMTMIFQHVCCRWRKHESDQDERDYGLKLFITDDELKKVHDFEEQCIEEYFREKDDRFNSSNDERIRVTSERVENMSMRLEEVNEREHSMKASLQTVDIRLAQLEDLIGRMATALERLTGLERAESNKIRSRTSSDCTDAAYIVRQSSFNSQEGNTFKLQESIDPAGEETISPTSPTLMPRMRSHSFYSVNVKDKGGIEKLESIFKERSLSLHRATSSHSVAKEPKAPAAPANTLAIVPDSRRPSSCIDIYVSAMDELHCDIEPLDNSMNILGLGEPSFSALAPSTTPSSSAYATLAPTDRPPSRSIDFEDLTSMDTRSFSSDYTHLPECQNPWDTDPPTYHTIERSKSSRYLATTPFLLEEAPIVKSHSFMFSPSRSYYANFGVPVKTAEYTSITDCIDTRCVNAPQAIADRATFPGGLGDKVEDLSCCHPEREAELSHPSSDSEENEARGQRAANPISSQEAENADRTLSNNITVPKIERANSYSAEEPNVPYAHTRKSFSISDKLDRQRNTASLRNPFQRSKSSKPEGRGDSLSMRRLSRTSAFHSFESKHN

Take `Cc1ncsc1COc1cc(Cl)c2oc(C)c(C(=O)NC3(CO)CCOCC3)c2c1` [cpd 187, 7-chloro-N-(4-(hydroxymethyl)tetrahydro-2H-pyran-4-yl)-2-methyl-5-((4-methylthiazol-5-yl)-methoxy)benzofuran-3-carboxamide]: under setting [1], the half-maximal inhibitory concentration (IC50) lay within 1000 to 20000 nM. The same measure, in the same setting: next, `Cc1oc2ccc(OCc3cccnc3C(F)(F)F)cc2c1C(=O)NCC1(N)COC1` [cpd 189, N-((3-aminooxetan-3-yl)methyl)-2-methyl-5-((2-(trifluoromethyl)pyridin-3-yl)methoxy)-benzofuran-3-carboxamide]: 1000 to 20000 nM. In the case of `Cc1ncsc1COc1ccc2oc(C)c(C(=O)NC3CC4(CNC4)C3)c2c1` [cpd 190, 2-methyl-5-((4-methylthiazol-5-yl)methoxy)-N-(2-azaspiro[3.3]heptan-6-yl)benzofuran-3-carboxamide], the IC50 under setting [1] lay in the range of 1000 to 20000 nM. Same read-out and setting: next, `Cc1ncsc1COc1ccc2oc(C(F)F)c(C(=O)NC3(CO)CCOCC3)c2c1` [cpd 197, 2-(difluoromethyl)-N-(4-(hydroxymethyl)tetrahydro-2H-pyran-4-yl)-5-((4-methylthiazol-5-yl)-methoxy)benzofuran-3-carboxamide]: 1000 to 20000 nM. Consider `Cc1ncc(COc2ccc3oc(C)c(C(=O)N[C@@H](CO)C(=O)N4CCC(F)(F)C4)c3c2)s1` [cpd 277, (S)-N-(1-(3,3-difluoropyrrolidin-1-yl)-3-hydroxy-1-oxopropan-2-yl)-2-methyl-5-((2-methylthiazol-5-yl)methoxy)benzofuran-3-carboxamide], for which the 50% inhibitory concentration (IC50) (PS (50 μM) stimulated Ca2+ influx, HEK293, cpds 200-299) lay within 1000 to 20000 nM.

The molecule `Cc1ncc(COc2ccc3oc(C)c(C(=O)N[C@@H](CO)C(=O)N4CCCC4)c3c2)s1` [cpd 307, (S)-N-(3-hydroxy-1-oxo-1-(pyrrolidin-1-yl)propan-2-yl)-2-methyl-5-((2-methylthiazol-5-yl)methoxy)benzofuran-3-carboxamide] registered an IC50 under setting [2] of 1000 to 20000 nM. For `Cc1ncsc1COc1ccc2oc(C(F)F)c(C(=O)NC3(CO)CC3)c2c1` [cpd 308, 2-(difluoromethyl)-N-(1-(hydroxymethyl)cyclopropyl)-5-((4-methylthiazol-5-yl)methoxy)benzofuran-3-carboxamide], the 50% inhibitory concentration (IC50) under setting [2] lay in the range of 1000 to 20000 nM.

For the molecule `Cc1ncsc1COc1ccc2oc(C(F)F)c(C(=O)NC3(CO)COC3)c2c1` [cpd 309, 2-(difluoromethyl)-N-(3-(hydroxymethyl)oxetan-3-yl)-5-((4-methylthiazol-5-yl)methoxy)benzofuran-3-carboxamide], the concentration for half-maximal inhibition (IC50) under setting [2] fell in the range of 1000 to 20000 nM. On the same count and under the same terms, the same measure for `COc1ncccc1COc1ccc2oc(C(F)F)c(C(=O)NC3(CO)CCOCC3)c2c1` [cpd 312, 2-(difluoromethyl)-N-(4-(hydroxymethyl)tetrahydro-2H-pyran-4-yl)-5-((2-methoxypyridin-3-yl)methoxy)benzofuran-3-carboxamide]: 1000 to 20000 nM; for `Cc1ncsc1COc1ccc2oc(C)c(C(=O)NC3(CO)CC3)c2c1F` [cpd 327, 4-fluoro-N-(1-(hydroxymethyl)cyclopropyl)-2-methyl-5-((4-methylthiazol-5-yl)methoxy)benzofuran-3-carboxamide]: 1000 to 20000 nM. Same read-out and setting: the same measure for `Cc1oc2ccc(OCc3nccn3CC(F)F)cc2c1C(=O)NC1(CO)CCOCC1` [cpd 331, 5-((1-(2,2-difluoroethyl)-1H-imidazol-2-yl)methoxy)-N-(4-(hydroxymethyl)tetrahydro-2H-pyran-4-yl)-2-methylbenzofuran-3-carboxamide]: 1000 to 20000 nM; for `Cc1oc2ccc(OCc3ncccc3C(F)F)cc2c1C(=O)NC1(CO)CCOCC1` [cpd 351, 5-((3-(difluoromethyl)pyridin-2-yl)methoxy)-N-(4-(hydroxymethyl)tetmhydro-2H-pyran-4-yl)-2-methylbenzofuran-3-carboxamide]: 1000 to 20000 nM; for `Cc1ncsc1COc1cc(F)c2oc(C)c(C(=O)NC3(CO)CC3)c2c1` [cpd 366, 7-fluoro-N-(1-(hydroxymethyl)cyclopropyl)-2-methyl-5-((4-methylthiazol-5-yl)methoxy)benzofuran-3-carboxamide]: 1000 to 20000 nM. Regarding `Cc1oc2c(F)cc(OCc3cccnc3O)cc2c1C(=O)NC1(CO)CCOCC1` [cpd 368, 7-fluoro-N-(4-(hydroxymethyl)tetrahydro-2H-pyran-4-yl)-5-((2-hydroxypyridin-3-yl)methoxy)-2-methylbenzofuran-3-carboxamide], under setting [2], the IC50 lay in the range of 1000 to 20000 nM. Take `COc1ncccc1COc1cc(F)c2oc(C)c(C(=O)NC3(CO)CCOCC3)c2c1` [cpd 369, 7-fluoro-N-(4-(hydroxymethyl)tetrahydro-2H-pyran-4-yl)-5-((2-methoxypyridin-3-yl)methoxy)-2-methylbenzofuran-3-carboxamide]: the 50% inhibitory concentration (IC50) under setting [2] lay in the range of 1000 to 20000 nM. The same measure, in the same setting: next, `Cc1oc2ccc(OCc3ccnn3CC(F)F)cc2c1C(=O)N[C@H](C(N)=O)[C@@H](C)O` [cpd 381, N-((2S,3R)-1-amino-3-hydroxy-1-oxobutan-2-yl)-5-((1-(2,2-difluoroethyl)-1H-pyrazol-5-yl)methoxy)-2-methylbenzofuran-3-carboxamide]: not above 1000 nM. Molecule `Cc1oc2ccc(OCc3cccn(C)c3=O)cc2c1C(=O)NC1CCN(CCO)C1=O` (centres unmarked) [cpd 405, N-(1-(2-hydroxyethyl)-2-oxopyrrolidin-3-yl)-2-methyl-5-((1-methyl-2-oxo-1,2-dihydropyridin-3-yl)methoxy)benzofuran-3-carboxamide] had a half-inhibitory concentration (IC50) under setting [3] not below 20000 nM. For `Cc1oc2ccc(OCc3cccnc3O)cc2c1C(=O)NC1(C(N)=O)CC1` [cpd 479, N-(1-carbamoylcyclopropyl)-5-((2-hydroxypyridin-3-yl)methoxy)-2-methylbenzofuran-3-carboxamide], the IC50 under setting [3] is 1000 to 20000 nM. `Cc1ncsc1COc1ccc2oc(C)c(C(=O)NC(C#N)C(N)=O)c2c1` (centres unmarked) [cpd 502, N-(2-amino-1-cyano-2-oxoethyl)-2-methyl-5-((4-methylthiazol-5-yl)methoxy)benzofuran-3-carboxamide]: the IC50 under setting [4] is not above 1000 nM. The same measure, in the same setting: next, `Cc1ncsc1COc1ccc2oc(C)c(C(=O)NCC(N)=O)c2c1` [cpd 503, N-(2-amino-2-oxoethyl)-2-methyl-5-((4-methylthiazol-5-yl)methoxy)benzofuran-3-carboxamide]: not above 1000 nM; `Cc1ncsc1COc1ccc2oc(C)c(C(=O)NC3(CN)COC3)c2c1` [cpd 507, N-(3-(aminomethyl)oxetan-3-yl)-2-methyl-5-((4-methylthiazol-5-yl)methoxy)benzofuran-3-carboxamide]: 1000 to 20000 nM. On the same count and under the same terms, next, `Cc1oc2ccc(OCc3nccn3C)cc2c1C(=O)NC1(CO)COC1` [cpd 523, N-(3-(hydroxymethyl)oxetan-3-yl)-2-methyl-5-((1-methyl-1H-imidazol-2-yl)methoxy)benzofuran-3-carboxamide]: 1000 to 20000 nM.

As for `Cc1oc2ccc(OCc3nccn3C)cc2c1C(=O)NC1(C(N)=O)COC1` [cpd 578, N-(3-carbamoyloxetan-3-yl)-2-methyl-5-((1-methyl-1H-imidazol-2-yl)methoxy)benzofuran-3-carboxamide], the IC50 under setting [4] lay in the range of 1000 to 20000 nM. In turn, `Cc1ncsc1COc1ccc2oc(C)c(C(=O)NC3(CO)CCOCC3)c2c1C` [cpd 603, N-(4-(hydroxymethyl)tetrahydro-2H-pyran-4-yl)-2,4-dimethyl-5-((4-methylthiazol-5-yl)methoxy)benzofuran-3-carboxamide] returned a concentration for half-maximal inhibition (IC50) under setting [5] of 1000 to 20000 nM. Under setting [5], `Cc1oc2ccc(OCc3ncn(C)n3)cc2c1C(=O)NC1(CO)CCOCC1` [cpd 606, N-(4-(hydroxymethyl)tetrahydro-2H-pyran-4-yl)-2-methyl-5-((1-methyl-1H-1,2,4-triazol-3-yl)methoxy)benzofuran-3-carboxamide] yielded a half-maximal inhibitory concentration (IC50) of 1000 to 20000 nM. On the same count and under the same terms, next, `Cc1oc2ccc(OCc3cncn3C)cc2c1C(=O)NC1(CO)CCOCC1` [cpd 607, N-(4-(hydroxymethyl)tetrahydro-2H-pyran-4-yl)-2-methyl-5-((1-methyl-1H-imidazol-5-yl)methoxy)benzofuran-3-carboxamide]: 1000 to 20000 nM; `Cc1oc2ccc(OCc3cccn(C)c3=O)cc2c1C(=O)NC1(CO)CCOCC1` [cpd 609, N-(4-(hydroxymethyl)tetrahydro-2H-pyran-4-yl)-2-methyl-5-((1-methyl-2-oxo-1,2-dihydropyridin-3-yl)methoxy)benzofuran-3-carboxamide]: 1000 to 20000 nM. Regarding `Cc1oc2ccc(OCc3cccc(=O)n3C)cc2c1C(=O)NC1(CO)CCOCC1` [cpd 610, N-(4-(hydroxymethyl)tetrahydro-2H-pyran-4-yl)-2-methyl-5-((1-methyl-6-oxo-1,6-dihydropyridin-2-yl)methoxy)benzofuran-3-carboxamide], the half-inhibitory concentration (IC50) under setting [5] lay within 1000 to 20000 nM.

Under setting [5], `Cc1nccc(COc2ccc3oc(C)c(C(=O)NC4(CO)CCOCC4)c3c2)n1` [cpd 612, N-(4-(hydroxymethyl)tetrahydro-2H-pyran-4-yl)-2-methyl-5-((2-methylpyrimidin-4-yl)methoxy)benzofuran-3-carboxamide] registered a 50% inhibitory concentration (IC50) of 1000 to 20000 nM. The same measure, in the same setting: the same measure for `Cc1coc(COc2ccc3oc(C)c(C(=O)NC4(CO)CCOCC4)c3c2)n1` [cpd 616, N-(4-(hydroxymethyl)tetrahydro-2H-pyran-4-yl)-2-methyl-5-((4-methyloxazol-2-yl)methoxy)benzofuran-3-carboxamide]: 1000 to 20000 nM; for `Cc1csc(COc2ccc3oc(C)c(C(=O)NC4(CO)CCOCC4)c3c2)n1` [cpd 617, N-(4-(hydroxymethyl)tetrahydro-2H-pyran-4-yl)-2-methyl-5-((4-methylthiazol-2-yl)methoxy)benzofuran-3-carboxamide]: 1000 to 20000 nM.

Molecule `Cc1cnc(COc2ccc3oc(C)c(C(=O)NC4(CO)CCOCC4)c3c2)cn1` [cpd 619, N-(4-(hydroxymethyl)tetrahydro-2H-pyran-4-yl)-2-methyl-5-((5-methylpyrazin-2-yl)methoxy)benzofuran-3-carboxamide] gave a half-inhibitory concentration (IC50) under setting [5] of 1000 to 20000 nM.

A word on the IC50: it is the concentration at which inhibition is half-maximal. Read a low IC50 as higher potency.

Source of the values: US20240336602A1 (Katholieke Universiteit Leuven, priority 2020, published 2024).
